Measurements from patent US20250041323A1, “BDNF PRODUCTION PROMOTER” (YAMASA CORPORATION, priority 2022, published 2025).

Key:
BDNF mRNA in PC-12 cells [1] = assay: BDNF gene expression promoting effect-2: BDNF mRNA by real-time PCR in PC-12 cells (uridylic acid); format: cell-based, rat; conditions: 500 µM, 4 hours, n=3
Experimental: Rat adrenal medulla brown tumor-derived cells (PC-12 cells, JCRB0733), used as nervous system model cells, were suspended in DMEM containing 20% FBS and antibiotics, seeded on a collagen-coated 24-well plate at a density of 2.4×10^5 cells/well, and cultured in an incubator at 37° C. and 5% CO2 for 18 hours. Uridylic acid (UMP) was added to a final concentration of 500 µM, and cultured for 4 hours.
Subsequently, mRNA was extracted and an amount of mRNA of BDNF was evaluated by reverse transcription and real-time PCR analysis in the same procedure as that of Example 1.

[2] = tested on: BDNF mRNA in C2C12 cell-derived myotube cells; assay: BDNF gene expression promoting effect-1: BDNF mRNA by real-time PCR in C2C12 cell-derived myotube cells; format: cell-based, mouse; conditions: 1 mM, 4 hours, corrected to β-actin mRNA, vs control without test substance, Dunnett's test, n=3
Experimental: Mouse myoblast cell line C2C12 cells (RIKEN BRC, RCB0987) were suspended in a growth medium (DMEM containing 10% FBS and antibiotics), seeded in a 24-well plate, and cultured in an incubator at 37° C. and 5% CO2 until the cell density reached 70-90%. The growth medium was removed and replaced with a differentiation induction medium (DMEM containing 2% horse serum and antibiotics). After culturing it for 6 days while changing the medium once every 2 days, cytidylic acid (CMP) or uridylic acid (UMP) was added to a final concentration of 1 mM and cultured for 4 hours. The medium was removed, and the total RNA was extracted from the cells using NucleoSpin® RNA (TAKARA BIO INC).
Using the total RNA as a template, a reverse transcription reaction solution was prepared using ReverTra Ace® qPCR RT Kit (TOYOBO). The reverse transcription reaction solution, GoTaq qPCR Master Mix (Promega), and a real-time PCR device Thermal Cycler Dice® Real Time System (TAKARA BIO INC) were used to measure amounts of mRNAs of BDNF and β-actin as an internal standard. Analysis was performed by relative quantification, and the amount of the mRNA was corrected using the amount of mRNA of β-actin as an endogenous control.
The threshold of statistical significance was set at 5%. In addition, unless otherwise specified, including the following Examples, each sample was examined at n=3.

BDNF mRNA in PC-12 cells [3] = assay: BDNF gene expression promoting effect-3: BDNF mRNA by real-time PCR in PC-12 cells (uridine); format: cell-based, rat; conditions: 200 μM, 1 hour, n=3
Experimental: PC-12 cells were suspended in DMEM containing 5% FBS (fetal bovine serum), 10% horse serum, and antibiotics (100 units/ml of penicillin, 100 μg/ml of streptomycin), seeded on a collagen-coated 24-well plate at a density of 2.4×10^5 cells/well, and cultured in an incubator at 37° C. and 5% CO2 for 18 hours. Uridine, a precursor of uridylic acid, was added to a final concentration of 200 μM, and cultured for 1 hour. Subsequently, mRNA was extracted, and the amount of mRNA of BDNF was evaluated by reverse transcription and real-time PCR analysis in the same procedure as that of Example 1.

[4] = tested on: BDNF protein in PC-12 cells; assay: BDNF protein by Rat BDNF ELISA in PC-12 cell lysate; format: cell-based; conditions: 200 µM, 24 hours, t-test vs control, n=3
Experimental: PC-12 cells were suspended in DMEM containing 20% FBS and antibiotics, seeded on a collagen-coated 24-well plate at a density of 2.4×10^5 cells/well, and cultured in an incubator at 37° C. and 5% CO2 for 18 hours. Uridine was added to a final concentration of 200 µM, and cultured for 24 hours. The medium was removed by suction, and 100 μl of RIPA buffer (50 mM Tris-HCl (pH 7.6), 150 mM NaCl, 1% NP-40, 0.5% sodium deoxycholate, 1% SDS) containing 1% protease inhibitor cocktail (nacalai tesque) was added, and the cells were disrupted by pipetting and ultrasonication. The amount of BDNF in the cell lysate was measured using a Rat BDNF ELISA Kit (RayBiotech). The amount of protein in the cell lysate was measured using a Micro BCA™ Protein Assay Kit (Thermo Fisher Scientific), and the amount of BDNF per total protein mass was calculated. […] The threshold for statistical significance was set at 5%.

Row | Compound | amount of mRNA of BDNF (BDNF mRNA in PC-12 cells [1]) | amount of mRNA of BDNF [2] | amount of mRNA of BDNF (BDNF mRNA in PC-12 cells [3]) | amount of BDNF per total protein mass [4]
1 | O=c1ccn([C@@H]2O[C@H](COP(=O)(O)O)[C@@H](O)[C@H]2O)c(=O)[nH]1 [uridylic acid] | significantly increased | significantly increased | – | –
2 | Nc1ccn([C@@H]2O[C@H](COP(=O)(O)O)[C@@H](O)[C@H]2O)c(=O)n1 [cytidylic acid] | – | significantly increased | – | –
3 | O=c1ccn([C@@H]2O[C@H](CO)[C@@H](O)[C@H]2O)c(=O)[nH]1 [uridine] | – | – | significantly increased | significantly increased
